Data published in patent US5516797A, “Immunosuppressive compounds” (Vertex Pharmaceuticals, Incorporated, priority 1994, dated 1996).

Legend:
[1] = system: PBLs stimulated with LB human viral transformed B lymphoblastoid cells; assay: MLR bioassay LB: inhibition of proliferation in mixed lymphocyte reaction; type: cell-based; conditions: Lymphoblastoid cell, pulsed on day 6, harvested 24 h later
How it was run: (§1)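 Fresh human PBLs (5×10^4) stimulated with 5×10^3 Mitomycin C-treated allogeneic EBV-transformed B lymphoblastoid cells in RPMI 1640 with 10% FCS, with or without compound (DMSO stocks). Pulsed on day 6, harvested 24 h later and counted.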

[2] = system: PBLs stimulated with JVM human viral transformed B lymphoblastoid cells; assay: MLR bioassay JVM: inhibition of proliferation in mixed lymphocyte reaction; type: cell-based; conditions: Lymphoblastoid cell, pulsed on day 6, harvested 24 h later
How it was run: as §1

[3] = system: human peripheral blood lymphocytes; assay: Mitogenesis assay PMA: inhibition of proliferation of human PBLs; type: cell-based; conditions: Lymphocyte, PMA (10 ng/ml) plus ionomycin (250 ng/ml), 48 h incubation
How it was run: (§2)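 Human PBLs from normal donors, isolated over Histopaque 1077 and cultured in RPMI 1640 with 10% heat-inactivated FCS, were stimulated with PMA or OKT3 mitogen in the presence of compound (DMSO stocks). After 48 h at 37 °C and 5% CO2, cells were pulsed with 1 μCi ³H-thymidine and harvested 24 h later for scintillation counting.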

[4] = target: T1, FK-506 binding protein (FKBP) (Homo sapiens, UniProt P62942); assay: Inhibition of PPIase (rotamase) enzyme activity of FKBP (apparent Ki); type: biochemical; conditions: substrate N-succinylAla-Ala-Pro-Phe-p-nitroanilide, chymotrypsin-coupled
How it was run: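 Cis-trans isomerization of N-succinyl-Ala-Ala-Pro-Phe-p-nitroanilide was followed spectrophotometrically in a chymotrypsin-coupled assay releasing 4-nitroanilide from the trans substrate. Apparent Ki came from the change in first-order rate constant across inhibitor concentrations.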

[5] = system: human peripheral blood lymphocytes; assay: Mitogenesis assay OKT3: inhibition of proliferation of human PBLs; type: cell-based; conditions: Lymphocyte, OKT3 (10^-4 dilution final), 48 h incubation
How it was run: as §2

[6] = target: T1, FK-506 binding protein (FKBP); assay: Competitive binding to FKBP against [3H]dihydro-FK-506 (apparent Kd); conditions: competition with [3H]dihydro-FK-506

T1 sequence (P62942 whole entry): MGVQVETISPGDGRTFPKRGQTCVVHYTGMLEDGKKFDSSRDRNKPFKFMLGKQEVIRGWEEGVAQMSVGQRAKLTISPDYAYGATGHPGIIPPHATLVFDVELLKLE

| Structure (SMILES) | Ki [4] [µM] | Kd [6] [µM] | IC50 [1] [µM] | IC50 [2] [µM] | IC50 [3] [µM] | IC50 [5] [µM] |
| --- | --- | --- | --- | --- | --- | --- |
| O=C(C(=O)N1CCCC[C@H]1C(=O)OCCCCc1ccccc1)c1ccc(I)cc1 [Compound 81] | 0.8 | 0.25 | > 10 | > 10 | 7 | > 10 |
| O=C(C(=O)N1CCCC[C@H]1C(=O)OCCCCc1ccccc1)c1cccc(I)c1 [Compound 82] | 0.13 | 0.2 | > 10 | > 10 | 10 | > 10 |
| C=CCOC(=O)Nc1ccc(CCCOC(=O)[C@@H]2CCCCN2C(=O)C(=O)c2cc(OC)c(OC)c(OC)c2)cc1 [Compound 88] | 0.011 | 0.07 | 2.5 | 4.5 | 2.2 | 2.2 |

Second part, led by results:

| Ki [4] [µM] | Kd [6] [µM] | Structure (SMILES) | IC50 [1] [µM] | IC50 [2] [µM] | IC50 [3] [µM] | IC50 [5] [µM] |
| --- | --- | --- | --- | --- | --- | --- |
| 0.011 | 0.6 | COc1ccc(C=CCCOC(=O)[C@@H]2CCCCN2C(=O)C(=O)c2cc(OC)c(OC)c(OC)c2)cc1 [Compound 90] | > 10 | > 10 | 8 | > 10 |
| 0.015 | 0.06 | COc1cc(C(=O)C(=O)N2CCCC[C@H]2C(=O)OCCCc2cn(C=O)c3ccccc23)cc(OC)c1OC [Compound 93] | 10 | 8.7 | 6 | 7 |
| 0.016 | 0.05 | COc1cc(C(=O)C(=O)N2CCCC[C@H]2C(=O)OCCCCc2c[nH]c3ccccc23)cc(OC)c1OC [Compound 94] | > 10 | 7 | 5 | 5.5 |
| 0.04 | 0.033 | O=C(C(=O)N1CCCC[C@H]1C(=O)OCCCCc1ccccc1)c1cccc(-c2ccccc2)c1 [Compound 96] | > 10 | > 10 | > 10 | > 10 |
| 0.08 | 0.18 | O=C(C(=O)N1CCCC[C@H]1C(=O)OCCCCc1ccccc1)C1CCCCC1 [Compound 98] | > 10 | > 10 | > 10 | > 10 |
